In patent US20230085307A1, “PYRIDAZINONE COMPOUND AND HERBICIDE” (NISSAN CHEMICAL CORPORATION, priority 2019, published 2023):

Key:
windgrass [1] = test: Test Example 4: herbicidal effect by soil treatment (Table 19, symbol L); assay type: in vivo, windgrass (Apera spica-venti)
How it was run: (§1)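 In this soil treatment, the formulated compound reached the seeds only through the soil: seeds were buried about 1.5 cm deep in sterilized diluvial soil, then the diluted emulsion was sprayed over the surface. After three weeks at 25° C. to 30° C. in a greenhouse, effects were graded on criteria from an earlier test.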

windgrass [2] = test: Test Example 5: herbicidal effect by foliage application, plastic box (Table 20, symbol L); assay type: in vivo, windgrass (Apera spica-venti); conditions: foliage application
How it was run: (§2)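 Plants were sown into sterilized diluvial soil under about 1.5 cm cover and kept in a greenhouse at 25° C. to 30° C. Fourteen days on, foliage received an even spray of the diluted emulsion. Herbicidal or crop effect was judged three weeks afterwards.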

lambsquarters [3] = test: Test Example 4: herbicidal effect by soil treatment (Table 19, symbol O); assay type: in vivo, lambsquarters (Chenopodium album)
How it was run: as §1

Italian ryegrass [4] = test: Test Example 5: herbicidal effect by foliage application, plastic box (Table 20, symbol K); assay type: in vivo, Italian ryegrass (Lolium multiflorum); conditions: foliage application
How it was run: as §2

persian speedwell [5] = test: Test Example 5: herbicidal effect by foliage application, plastic box (Table 20, symbol R); assay type: in vivo, Persian speedwell (Veronica persica); conditions: foliage application
How it was run: as §2

southern crabgrass [6] = test: Test Example 5: herbicidal effect by foliage application, plastic box (Table 20, symbol F); assay type: in vivo, southern crabgrass (Digitaria ciliaris); conditions: foliage application
How it was run: as §2

Italian ryegrass [7] = test: Test Example 4: herbicidal effect by soil treatment (Table 19, symbol K); assay type: in vivo, Italian ryegrass (Lolium multiflorum)
How it was run: as §1

blackgrass [8] = test: Test Example 4: herbicidal effect by soil treatment (Table 19, symbol J); assay type: in vivo, blackgrass (Alopecurus myosuroides)
How it was run: as §1

southern crabgrass [9] = test: Test Example 4: herbicidal effect by soil treatment (Table 19, symbol F); assay type: in vivo, southern crabgrass (Digitaria ciliaris)
How it was run: as §1

green foxtail [10] = test: Test Example 5: herbicidal effect by foliage application, plastic box (Table 20, symbol G); assay type: in vivo, green foxtail (Setaria viridis); conditions: foliage application
How it was run: as §2

rice flat sedge = test: Test Example 3: herbicidal effect by foliage application, Wagner pot (Table 18, symbol E); assay type: in vivo, rice flat sedge (Cyperus iria)
How it was run: (§3)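 Plants were sown in alluvial soil held under 0.1–0.5 cm standing water and grown 14 days in a greenhouse at 25–30 °C. An emulsifiable formulation, water-diluted to the set dose, was then sprayed onto the foliage, and effects were scored three weeks later using previously defined criteria.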

barnyard grass [11] = test: Test Example 4: herbicidal effect by soil treatment (Table 19, symbol H); assay type: in vivo, barnyard grass (Echinochloa crus-galli)
How it was run: as §1

redroot pigweed [12] = test: Test Example 5: herbicidal effect by foliage application, plastic box (Table 20, symbol N); assay type: in vivo, redroot pigweed (Amaranthus retroflexus); conditions: foliage application
How it was run: as §2

persian speedwell [13] = test: Test Example 4: herbicidal effect by soil treatment (Table 19, symbol R); assay type: in vivo, Persian speedwell (Veronica persica)
How it was run: as §1

chickweed [14] = test: Test Example 5: herbicidal effect by foliage application, plastic box (Table 20, symbol P); assay type: in vivo, common chickweed (Stellaria media); conditions: foliage application
How it was run: as §2

redroot pigweed [15] = test: Test Example 4: herbicidal effect by soil treatment (Table 19, symbol N); assay type: in vivo, redroot pigweed (Amaranthus retroflexus)
How it was run: as §1

Chinese sprangletop = test: Test Example 3: herbicidal effect by foliage application, Wagner pot (Table 18, symbol D); assay type: in vivo, chinese sprangletop (Leptochloa chinensis)
How it was run: as §3

false cleavers = test: Test Example 4: herbicidal effect by soil treatment (Table 19, symbol Q); assay type: in vivo, false cleavers (Galium spurium)
How it was run: as §1

velvetleaf [16] = test: Test Example 5: herbicidal effect by foliage application, plastic box (Table 20, symbol M); assay type: in vivo, velvetleaf (Abutilon theophrasti); conditions: foliage application
How it was run: as §2

lambsquarters [17] = test: Test Example 5: herbicidal effect by foliage application, plastic box (Table 20, symbol O); assay type: in vivo, lambsquarters (Chenopodium album); conditions: foliage application
How it was run: as §2

blackgrass [18] = test: Test Example 5: herbicidal effect by foliage application, plastic box (Table 20, symbol J); assay type: in vivo, blackgrass (Alopecurus myosuroides); conditions: foliage application
How it was run: as §2

barnyard grass [19] = test: Test Example 3: herbicidal effect by foliage application, Wagner pot (Table 18, symbol H); assay type: in vivo, barnyard grass (Echinochloa crus-galli)
How it was run: as §3

barnyard grass [20] = test: Test Example 5: herbicidal effect by foliage application, plastic box (Table 20, symbol H); assay type: in vivo, barnyard grass (Echinochloa crus-galli); conditions: foliage application
How it was run: as §2

green foxtail [21] = test: Test Example 4: herbicidal effect by soil treatment (Table 19, symbol G); assay type: in vivo, green foxtail (Setaria viridis)
How it was run: as §1

velvetleaf [22] = test: Test Example 4: herbicidal effect by soil treatment (Table 19, symbol M); assay type: in vivo, velvetleaf (Abutilon theophrasti)
How it was run: as §1

wild oat [23] = test: Test Example 5: herbicidal effect by foliage application, plastic box (Table 20, symbol I); assay type: in vivo, wild oat (Avena fatua); conditions: foliage application
How it was run: as §2

wild oat [24] = test: Test Example 4: herbicidal effect by soil treatment (Table 19, symbol I); assay type: in vivo, wild oat (Avena fatua)
How it was run: as §1

chickweed [25] = test: Test Example 4: herbicidal effect by soil treatment (Table 19, symbol P); assay type: in vivo, common chickweed (Stellaria media)
How it was run: as §1

[26] = AAH 80 g/ha, three weeks after application
[27] = 320 g/ha, evaluated three weeks after application

COc1ccc(-c2sc3ccccc3c2-c2c(O)c(OC)nn(C)c2=O)cc1OC [1-182]
L: windgrass, herbicidal effect rating (windgrass [1]; AAH 80 g/ha): 0 (Herbicidal rate of 5% or less (almost no effect)) | L: windgrass, herbicidal effect (windgrass [2]; [26]): 0 (Herbicidal rate of 5% or less (almost no effect)) | O: lambsquarters, herbicidal effect rating (lambsquarters [3]; AAH 80 g/ha): 4 (Herbicidal rate of 70% or more and less than 90%) | K: Italian ryegrass, herbicidal effect (Italian ryegrass [4]; [26]): 3 (Herbicidal rate of 40% or more and less than 70%) | R: persian speedwell, herbicidal effect (persian speedwell [5]; [26]): 5 (Herbicidal rate of 90% or more (almost completely withered)) | F: southern crabgrass, herbicidal effect (southern crabgrass [6]; [26]): 3 (Herbicidal rate of 40% or more and less than 70%) | K: Italian ryegrass, herbicidal effect rating (Italian ryegrass [7]; AAH 80 g/ha): 0 (Herbicidal rate of 5% or less (almost no effect)) | J: blackgrass, herbicidal effect rating (blackgrass [8]; AAH 80 g/ha): 0 (Herbicidal rate of 5% or less (almost no effect)) | F: southern crabgrass, herbicidal effect rating (southern crabgrass [9]; AAH 80 g/ha): 1 (Herbicidal rate of 5% or more and less than 20%) | G: green foxtail, herbicidal effect (green foxtail [10]; [26]): 4 (Herbicidal rate of 70% or more and less than 90%) | herbicidal effect on E (rice flat sedge), rating 0-5 (rice flat sedge; 80 g/ha): 5 (Herbicidal rate of 90% or more (almost completely withered)) | H: barnyard grass, herbicidal effect rating (barnyard grass [11]; AAH 80 g/ha): 0 (Herbicidal rate of 5% or less (almost no effect)) | N: redroot pigweed, herbicidal effect (redroot pigweed [12]; [26]): 3 (Herbicidal rate of 40% or more and less than 70%) | R: persian speedwell, herbicidal effect rating (persian speedwell [13]; AAH 80 g/ha): 5 (Herbicidal rate of 90% or more (almost completely withered)) | P: chickweed, herbicidal effect (chickweed [14]; [26]): 5 (Herbicidal rate of 90% or more (almost completely withered)) | N: redroot pigweed, herbicidal effect rating (redroot pigweed [15]; AAH 80 g/ha): 5 (Herbicidal rate of 90% or more (almost completely withered)) | herbicidal effect on D (Chinese sprangletop), rating 0-5 (Chinese sprangletop; 80 g/ha): 3 (Herbicidal rate of 40% or more and less than 70%) | Q: false cleavers, herbicidal effect rating (false cleavers; AAH 80 g/ha): 0 (Herbicidal rate of 5% or less (almost no effect)) | M: velvetleaf, herbicidal effect (velvetleaf [16]; [26]): 4 (Herbicidal rate of 70% or more and less than 90%) | O: lambsquarters, herbicidal effect (lambsquarters [17]; [26]): 5 (Herbicidal rate of 90% or more (almost completely withered)) | J: blackgrass, herbicidal effect (blackgrass [18]; [26]): 0 (Herbicidal rate of 5% or less (almost no effect)) | herbicidal effect on H (barnyard grass), rating 0-5 (barnyard grass [19]; 80 g/ha): 4 (Herbicidal rate of 70% or more and less than 90%) | H: barnyard grass, herbicidal effect (barnyard grass [20]; [26]): 3 (Herbicidal rate of 40% or more and less than 70%) | G: green foxtail, herbicidal effect rating (green foxtail [21]; AAH 80 g/ha): 5 (Herbicidal rate of 90% or more (almost completely withered)) | M: velvetleaf, herbicidal effect rating (velvetleaf [22]; AAH 80 g/ha): 1 (Herbicidal rate of 5% or more and less than 20%) | I: wild oat, herbicidal effect (wild oat [23]; [26]): 0 (Herbicidal rate of 5% or less (almost no effect)) | I: wild oat, herbicidal effect rating (wild oat [24]; AAH 80 g/ha): 0 (Herbicidal rate of 5% or less (almost no effect)) | P: chickweed, herbicidal effect rating (chickweed [25]; AAH 80 g/ha): 4 (Herbicidal rate of 70% or more and less than 90%)

Cc1nn(C)c(=O)c(-c2c(-c3ccc(F)cc3)sc3ccc(Cl)cc23)c1O [2-097]
herbicidal effect rating, L: windgrass (windgrass [1]; 320 g/ha): 5 (Herbicidal rate of 90% or more (almost completely withered)) | herbicidal effect on L: windgrass (windgrass [2]; [27]): 5 (Herbicidal rate of 90% or more (almost completely withered)) | herbicidal effect rating, O: lambsquarters (lambsquarters [3]; 320 g/ha): 5 (Herbicidal rate of 90% or more (almost completely withered)) | herbicidal effect on K: Italian ryegrass (Italian ryegrass [4]; [27]): 5 (Herbicidal rate of 90% or more (almost completely withered)) | herbicidal effect on R: persian speedwell (persian speedwell [5]; [27]): 5 (Herbicidal rate of 90% or more (almost completely withered)) | herbicidal effect on F: southern crabgrass (southern crabgrass [6]; [27]): 5 (Herbicidal rate of 90% or more (almost completely withered)) | herbicidal effect rating, K: Italian ryegrass (Italian ryegrass [7]; 320 g/ha): 5 (Herbicidal rate of 90% or more (almost completely withered)) | herbicidal effect rating, J: blackgrass (blackgrass [8]; 320 g/ha): 5 (Herbicidal rate of 90% or more (almost completely withered)) | herbicidal effect rating, F: southern crabgrass (southern crabgrass [9]; 320 g/ha): 2 (Herbicidal rate of 20% or more and less than 40%) | herbicidal effect on G: green foxtail (green foxtail [10]; [27]): 5 (Herbicidal rate of 90% or more (almost completely withered)) | herbicidal effect on E (rice flat sedge), rating 0-5 (rice flat sedge; 320 g/ha): 4 (Herbicidal rate of 70% or more and less than 90%) | herbicidal effect rating, H: barnyard grass (barnyard grass [11]; 320 g/ha): 3 (Herbicidal rate of 40% or more and less than 70%) | herbicidal effect on N: redroot pigweed (redroot pigweed [12]; [27]): 5 (Herbicidal rate of 90% or more (almost completely withered)) | herbicidal effect rating, R: persian speedwell (persian speedwell [13]; 320 g/ha): 5 (Herbicidal rate of 90% or more (almost completely withered)) | herbicidal effect on P: chickweed (chickweed [14]; [27]): 5 (Herbicidal rate of 90% or more (almost completely withered)) | herbicidal effect rating, N: redroot pigweed (redroot pigweed [15]; 320 g/ha): 5 (Herbicidal rate of 90% or more (almost completely withered)) | herbicidal effect on D (Chinese sprangletop), rating 0-5 (Chinese sprangletop; 320 g/ha): 3 (Herbicidal rate of 40% or more and less than 70%) | herbicidal effect rating, Q: false cleavers (false cleavers; 320 g/ha): 4 (Herbicidal rate of 70% or more and less than 90%) | herbicidal effect on M: velvetleaf (velvetleaf [16]; [27]): 5 (Herbicidal rate of 90% or more (almost completely withered)) | herbicidal effect on O: lambsquarters (lambsquarters [17]; [27]): 5 (Herbicidal rate of 90% or more (almost completely withered)) | herbicidal effect on J: blackgrass (blackgrass [18]; [27]): 5 (Herbicidal rate of 90% or more (almost completely withered)) | herbicidal effect on H (barnyard grass), rating 0-5 (barnyard grass [19]; 320 g/ha): 5 (Herbicidal rate of 90% or more (almost completely withered)) | herbicidal effect on H: barnyard grass (barnyard grass [20]; [27]): 5 (Herbicidal rate of 90% or more (almost completely withered)) | herbicidal effect rating, G: green foxtail (green foxtail [21]; 320 g/ha): 3 (Herbicidal rate of 40% or more and less than 70%) | herbicidal effect rating, M: velvetleaf (velvetleaf [22]; 320 g/ha): 3 (Herbicidal rate of 40% or more and less than 70%) | herbicidal effect on I: wild oat (wild oat [23]; [27]): 5 (Herbicidal rate of 90% or more (almost completely withered)) | herbicidal effect rating, I: wild oat (wild oat [24]; 320 g/ha): 1 (Herbicidal rate of 5% or more and less than 20%) | herbicidal effect rating, P: chickweed (chickweed [25]; 320 g/ha): 5 (Herbicidal rate of 90% or more (almost completely withered))
